From patent US11325899B2, “Benzofurane and benzothiophene derivatives as PGE2 receptor modulators” (IDORSIA PHARMACEUTICALS LTD, priority 2017, dated 2022) come the findings set out here.

For assay [1], the target named is T1, PTGER2 (EP2) (Homo sapiens, UniProt P43116).
T1 construct: host or cells: HEK 293 (PathHunter PTGER2 b-arrestin cell line)
As to the kind of experiment: hEP2 b-arrestin assay (PathHunter HEK 293 PTGER2 b-arrestin cells). Type of assay: cell-based. Particulars: antagonistic activity, beta-arrestin assay; read-out: hEP2 b-arr IC50. The protocol:
(§1) The antagonistic activities of the compounds of formula (I) on the EP2 and EP4 receptors are determined in accordance with the following experimental method.
(§2) The assay is using the PathHunter™ HEK 293 PTGER2 and PTGER4 b-arrestin cell lines from DiscoverX. The system is based on the Enzyme Fragment Complementation Technology. Two complementing fragments of the b-galactosidase enzyme are expressed within stably transfected cells. The larger portion of b-gal, termed EA for Enzyme Acceptor, is fused to the C-terminus of b-arrestin 2. The smaller fragment, termed ProLink™ tag, is fused to PTGER2 (EP2) or PTRGER4 (EP4) at the C-terminus. Upon activation, b-arrestin is recruited which forces the interaction of ProLink and EA, allowing complementation of the two fragments of b-gal and the formation of a functional enzyme which is capable of hydrolysing the substrate and generating a chemiluminescent signal.
The HEK 293 PTGER2 b-arrestin cells (DiscoverX 93-021-4C1) are detached from culture dishes with a cell dissociation buffer (Invitrogen, 13151-014), and collected in growing medium (GM: DMEM+Glutamax-I (Invitrogen 32430)/10% FCS, 1% Penicilin/streptomycin). 5000 cells per well of a 384 well plate (white with white bottom Greiner 781080) are seeded in 20 ul per well of GM. Plate is incubated at 37° C., 5% C02 for 24 hours.
(§3) Stock solutions of test compounds are made at a concentration of 10 mM in DMSO, and serially diluted in DMSO to concentrations required for inhibition dose response curves (tested concentration range 10 μM-2 nM or 1 μM-0.2 nM).
PGE2 (Cayman 14010, stock solution: 10 mM in DMSO) is used as agonist at 5 μM final concentration, corresponding to EC80.
Five microliters of diluted compounds are transferred into the assay plate. Plate is pre-incubated 15 minutes at 37° C. Then five microliters of PGE2 (final conc. 5 μM) are transferred into the assay plate. Plate is incubated 120 minutes at 37° C.
(§4) PathHunter Glo Detection Kit components are thawed and mix according to manufacturer's instructions: 1 part Galacton Star Substrate with 5 parts Emerald II™ Solution, and 19 parts of PathHunter Cell Assay Buffer, respectively. Twelve μl of reagent are transferred to the assay plate and incubate for 1 hour at room temperature in the dark. Luminescence counts are read on a BMG Fluostar Optima reader according to manufacturer's instructions.
(§5) For each compound concentration calculate of the percentage of activity compared to DMSO control value as average±STDEV. (each concentration is measured in duplicate)
(§6) IC50 values and curves are generated with XLfit software (IDBS) using Dose-Response One Site model 203. When compounds were measured multiple times, mean values are given.

Assay [2] deals with T2, PTGER4 (EP4) (Homo sapiens, UniProt P35408).
T2 construct: host or cells: HEK 293 (PathHunter PTGER4 b-arrestin cell line)
T2 sequence (P35408 whole entry): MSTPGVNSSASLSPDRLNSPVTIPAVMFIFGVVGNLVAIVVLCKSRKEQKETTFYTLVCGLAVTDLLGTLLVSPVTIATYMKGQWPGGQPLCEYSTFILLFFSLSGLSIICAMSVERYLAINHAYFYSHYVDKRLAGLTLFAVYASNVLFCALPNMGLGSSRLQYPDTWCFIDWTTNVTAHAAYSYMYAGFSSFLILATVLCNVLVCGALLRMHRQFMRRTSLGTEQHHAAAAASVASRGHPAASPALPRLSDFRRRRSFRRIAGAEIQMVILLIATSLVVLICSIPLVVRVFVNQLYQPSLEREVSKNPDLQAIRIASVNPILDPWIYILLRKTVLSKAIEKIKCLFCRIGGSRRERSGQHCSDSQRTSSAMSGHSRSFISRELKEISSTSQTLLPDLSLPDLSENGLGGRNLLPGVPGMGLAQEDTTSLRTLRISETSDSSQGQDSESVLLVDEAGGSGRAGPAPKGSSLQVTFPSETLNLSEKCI
As to the kind of experiment: hEP4 b-arrestin assay (PathHunter HEK 293 PTGER4 b-arrestin cells). Type of assay: cell-based. Particulars: antagonistic activity, beta-arrestin assay; read-out: hEP4 b-arr IC50. The protocol: as §1, §2
The HEK 293 PTGER4 b-arrestin cells (DiscoverX 93-030-4C1) are detached from culture dishes with a cell dissociation buffer (Invitrogen, 13151-014), and collected in growing medium (GM: DMEM+Glutamax-I (Invitrogen 32430)/10% FCS, 1% Penicilin/streptomycin). 5000 cells per well of a 384 well plate (white with white bottom Greiner 781080) are seeded in 20 ul per well of GM. Plate is incubated at 37° C., 5% C02 for 24 hours.
as §3
PGE2 (Cayman 14010, stock solution: 100 uM in DMSO) is used as agonist at 20 nM final concentration, corresponding to EC80.
Five microliters of diluted compounds are transferred into the assay plate. Plate is pre-incubated 15 minutes at 37° C. Then five microliters of PGE2 (final conc. 20 nM) are transferred into the assay plate. Plate is incubated 120 minutes at 37° C.
as §4, §5, §6

T1 sequence (P43116 whole entry): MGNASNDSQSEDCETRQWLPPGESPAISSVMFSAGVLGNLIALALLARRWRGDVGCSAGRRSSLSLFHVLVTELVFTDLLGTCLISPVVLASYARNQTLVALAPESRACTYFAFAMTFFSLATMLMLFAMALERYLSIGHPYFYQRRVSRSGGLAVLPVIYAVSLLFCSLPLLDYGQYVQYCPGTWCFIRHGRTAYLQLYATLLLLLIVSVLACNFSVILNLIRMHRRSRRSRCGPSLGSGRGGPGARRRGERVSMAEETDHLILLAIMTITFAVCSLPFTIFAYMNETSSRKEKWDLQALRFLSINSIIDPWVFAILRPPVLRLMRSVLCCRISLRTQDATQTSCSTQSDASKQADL

What is called IC50 is the concentration that inhibits the measured activity by half. As to `Cc1sc2c(C)cc(F)cc2c1CCNc1cc(-c2ccc(/C=C/C(=O)O)cc2)ncn1` [Example 204, (E)-3-(4-{6-[2-(5-Fluoro-2,7-dimethyl-benzo[b]thiophen-3-yl)-ethylamino]-pyrimidin-4-yl}-phenyl)-acrylic acid], the IC50 was 108 nM in assay [1] and 1030 nM in assay [2].
The corresponding values for `Cc1[nH]c(-c2cc(NCCc3c(C)sc4c(C)cc(F)cc34)ncn2)cc1C(=O)O` [Example 205, 5-{6-[2-(5-Fluoro-2,7-dimethyl-benzo[b]thiophen-3-yl)-ethylamino]-pyrimidin-4-yl}-2-methyl-1 H-pyrrole-3-carboxylic acid] are 74 nM and 771 nM.
For `CCCc1cc(-c2cc(NCCc3c(C)sc4c(C)cc(F)cc34)ncn2)ccc1C(N)=O` [Example 206, 4-{6-[2-(5-Fluoro-2,7-dimethyl-benzo[b]thiophen-3-yl)-ethylamino]-pyrimidin-4-yl}-2-propyl-benzamide], the IC50 in assay [1] came to 10 nM; in assay [2], 288 nM.
In the same order, the values of `CCCc1cc(-c2cc(NCCc3c(C)sc4c(C)cc(F)cc34)ncn2)ccc1C(=O)NCC(C)(C)O` [Example 207, 4-{6-[2-(5-Fluoro-2,7-dimethyl-benzo[b]thiophen-3-yl)-ethylamino]-pyrimidin-4-yl}-N-(2-hydroxy-2-methyl-propyl)-2-propyl-benzamide] are 26 nM and 335 nM.
The corresponding values for `CCCc1cc(-c2cc(NCCc3c(C)sc4c(C)cc(F)cc34)ncn2)ccc1C(=O)NCCOC` [Example 208, 4-{6-[2-(5-Fluoro-2,7-dimethyl-benzo[b]thiophen-3-yl)-ethylamino]-pyrimidin-4-yl}-N-(2-methoxy-ethyl)-2-propyl-benzamide] are 62 nM and 837 nM.
In the same order, the values of `CCCc1cc(-c2cc(NCCc3c(C)sc4c(C)cc(F)cc34)ncn2)ccc1C(=O)NCCO` [Example 209, 4-{6-[2-(5-Fluoro-2,7-dimethyl-benzo[b]thiophen-3-yl)-ethylamino]-pyrimidin-4-yl}-N-(2-hydroxy-ethyl)-2-propyl-benzamide] are 8 nM and 280 nM.
Regarding `CCCc1cc(-c2cc(NCCc3c(C)sc4c(C)cc(F)cc34)ncn2)ccc1C(=O)NC` [Example 210, 4-{6-[2-(5-Fluoro-2,7-dimethyl-benzo[b]thiophen-3-yl)-ethylamino]-pyrimidin-4-yl}-N-methyl-2-propyl-benzamide], the figures for the IC50 in assay [1] and in assay [2] were 19 nM and 469 nM, respectively.
In the same order, the values of `CCOc1cc(-c2cc(NCCc3c(C)sc4c(C)cc(F)cc34)ncn2)ccc1C(=O)NCCO` [Example 211, 2-Ethoxy-4-{6-[2-(5-fluoro-2,7-dimethyl-benzo[b]thiophen-3-yl)-ethylamino]-pyrimidin-4-yl}-N-(2-hydroxy-ethyl)-benzamide] are 30 nM and 367 nM.
In the same order, the values of `CCOc1cc(-c2cc(NCCc3c(C)sc4c(C)cc(F)cc34)ncn2)ccc1C(=O)NC` [Example 212, 2-Ethoxy-4-{6-[2-(5-fluoro-2,7-dimethyl-benzo[b]thiophen-3-yl)-ethylamino]-pyrimidin-4-yl}-N-methyl-benzamide] are 11 nM and 667 nM.
The corresponding values for `CCOc1cc(-c2cc(NCCc3c(C)sc4c(C)cc(F)cc34)ncn2)ccc1C(N)=O` [Example 213, 2-Ethoxy-4-{6-[2-(5-fluoro-2,7-dimethyl-benzo[b]thiophen-3-yl)-ethylamino]-pyrimidin-4-yl}-benzamide] are 10 nM and 405 nM.
Take `Cc1sc2c(C)cc(F)cc2c1CCNc1cc(-c2cnn(C(C)(C)C(=O)O)c2)ncn1` [Example 214, 2-(4-{6-[2-(5-Fluoro-2,7-dimethyl-benzo[b]thiophen-3-yl)-ethylamino]-pyrimidin-4-yl}-pyrazol-1-yl)-2-methyl-propionic acid]: the IC50 came out at 237 nM in assay [1] and 388 nM in assay [2].
The corresponding values for `CCOc1cc(-c2cc(NCCc3c(C)sc4c(C)cc(F)cc34)ncn2)ccc1C1(C(=O)O)CC1` [Example 215, 1-(2-Ethoxy-4-{6-[2-(5-fluoro-2,7-dimethyl-benzo[b]thiophen-3-yl)-ethylamino]-pyrimidin-4-yl}-phenyl)-cyclopropanecarboxylic acid] are 143 nM and 151 nM.
The corresponding values for `CCOc1c(CC(=O)O)ccc(-c2cc(NCCc3c(C)sc4c(C)cc(F)cc34)ncn2)c1F` [Example 216, (2-Ethoxy-3-fluoro-4-{6-[2-(5-fluoro-2,7-dimethyl-benzo[b]thiophen-3-yl)-ethylamino]-pyrimidin-4-yl}-phenyl)-acetic acid] are 41 nM and 234 nM.
The corresponding values for `CCOc1cc(-c2cc(NCCc3c(C)sc4c(C)cc(F)cc34)ncn2)c(F)cc1CC(=O)O` [Example 217, (2-Ethoxy-5-fluoro-4-{6-[2-(5-fluoro-2,7-dimethyl-benzo[b]thiophen-3-yl)-ethylamino]-pyrimidin-4-yl}-phenyl)-acetic acid] are 126 nM and 847 nM.
With `CCCc1cc(-c2cc(NCCc3c(C)sc4c(C)cc(F)cc34)ncn2)ccc1C1(C(=O)O)CC1` [Example 218, 1-(4-{6-[2-(5-Fluoro-2,7-dimethyl-benzo[b]thiophen-3-yl)-ethylamino]-pyrimidin-4-yl}-2-propyl-phenyl)-cyclopropanecarboxylic acid], the values for the IC50 in assay [1] and in assay [2] were 95 nM and 143 nM, respectively.
In the same order, the values of `CCCc1cc(-c2cc(NCCc3c(C)sc4c(C)cc(F)cc34)ncn2)sc1CC(=O)O` [Example 219, (5-{6-[2-(5-Fluoro-2,7-dimethyl-benzo[b]thiophen-3-yl)-ethylamino]-pyrimidin-4-yl}-3-propyl-thiophen-2-yl)-acetic acid] are 41 nM and 211 nM.
As to `Cc1sc2c(C)cc(F)cc2c1CCNc1cc(-c2cc(OC(F)F)c(CC(=O)O)s2)ncn1` [Example 220, (3-Difluoromethoxy-5-{6-[2-(5-fluoro-2,7-dimethyl-benzo[b]thiophen-3-yl)-ethylamino]-pyrimidin-4-yl}-thiophen-2-yl)-acetic acid], the IC50 stood at 44 nM in assay [1] and 407 nM in assay [2].
In the same order, the values of `Cc1sc2c(C)cc(F)cc2c1CCNc1cc(-c2cc3cccc(C(=O)O)c3[nH]2)ncn1` [Example 221, 2-{6-[2-(5-Fluoro-2,7-dimethyl-benzo[b]thiophen-3-yl)-ethylamino]-pyrimidin-4-yl}-1H-indole-7-carboxylic acid] are 24 nM and 908 nM.
In the same order, the values of `Cc1sc2c(C)cc(F)cc2c1CCNc1cc(-c2cc3cccc(C(=O)O)c3s2)ncn1` [Example 222, 2-{6-[2-(5-Fluoro-2,7-dimethyl-benzo[b]thiophen-3-yl)-ethylamino]-pyrimidin-4-yl}-benzo[b]thiophene-7-carboxylic acid] are 14 nM and 453 nM.
As for `COc1cc(-c2cc(NCCc3c(C)sc4c(C)cc(F)cc34)ncn2)ccc1CCC(=O)O` [Example 223, 3-(4-{6-[2-(5-Fluoro-2,7-dimethyl-benzo[b]thiophen-3-yl)-ethylamino]-pyrimidin-4-yl}-2-methoxy-phenyl)-propionic acid], the figures for the IC50 in assay [1] and in assay [2] were 35 nM and 487 nM, respectively.
The corresponding values for “(4-{6-[2-(2-Cyano-benzo[b]thiophen-3-yl)-ethylamino]-pyrimidin-4-yl}-2-ethoxy-phenyl)-acetic acid [Example 175]” are 89 nM and 492 nM.
